Values quoted from earlier work in patent publication US5246706A, “Device for administering bimakalim transdermally” (Cygnus Therapeutic Systems, priority 1991, dated 1993).

How the values were obtained:
potassium channel = conditions: background statement
[1] = known
[2] = octanol/phosphate buffer, pH 7.4; known

water solubility [1]	partition coefficient [2]	SMILES	potassium channel activating properties (potassium channel)
–	–	CC1(C)Oc2ccc(C#N)cc2[C@@H](n2ccccc2=O)[C@@H]1O (single isomer, unassigned) [(-)-trans-3,4-dihydro-4-(1,2-dihydro-2-oxo-1-pyridyl)-3-hydroxy-2,2-dimethyl-2H-1-benzopyran-6-carbonitrile]	exhibits potassium channel activating properties
approximately 0.7 mg/ml	27.0	CC1(C)C=C(n2ccccc2=O)c2cc(C#N)ccc2O1 [Bimakalim, 4-(1,2-dihydro-2-oxo-1-pyridyl)-2,2-dimethyl-2H-1-benzopyran-6-carbonitrile]	potassium channel activating drug
